Source: patent publication US12115178B2, “Acylated active agents and methods of their use for the treatment of autoimmune disorders” (Flagship Pioneering Innovations V, Inc., priority 2018, dated 2024)

Tests used:
[1] = system: naïve CD4+ T cells; assay: Human regulatory T cell differentiation assay; type: cell-based; settings: 6 days
Description: Peripheral blood mononuclear cells (PBMCs) from whole blood donated by health volunteers were separated by Ficoll-Paque gradient centrifugation and naïve CD4^+ T cells were subsequently isolated using magnet beads (EasySep™ Human Naïve CD4^+ T Cell Isolation Kit, Cambridge, MA). For regulatory T cell (Treg) differentiation assay, naïve CD4^+ T cells were cultured (1-10×10^4 cells) in CTS OpTmizer medium for 6 days and stimulated with 5 ng/ml TGF-β, 100 U/ml IL-2, and ImmunoCult™ Human […] T Cell Activator; Stemcell #10990) with/without our Compounds. Cell viability was determined using a viability dye (eBioscience Fixable Viability Dye eFluor 780: ThermoFisher 65-0865-14) at 1:500 dilution. The cells were gated for Treg, defined as Live, CD11c^−, CD14^−, CD19^−, CD8^−, CD4^+, CD3^+, CD25^+, FOXP3^+. Percent (%) Tregs were calculated as percentage of CD4^+, CD25^+, FOXP3^+ cells over total CD4 T cells. Statistical analysis was performed with GraphPad Prism Software Using One-Way ANOVA.

[2] = system: type II collagen arthritis; assay: In vivo rheumatoid arthritis model (semi-established type II collagen arthritis); design: species or system Lewis rats; settings: rats; for Mean Ankle Bone Resorption score (0-5) / Mean Ankle Cartilage Damage score (0-5) / Mean Ankle Pannus score (0-5) / Mean Ankle Periosteal Bone score (0-5) / Mean Ankle inflammation score (0-5) / Mean Knee Bone Resorption score (0-5) / Mean Knee Cartilage Damage score (0-5) / Mean Knee Pannus score (0-5): 0 = normal, 5 = severe; for Serum IgG: terminal serum ELISA for anti-type II collagen antibodies
Description: A study was conducted to determine the efficacy of test articles dosed by the oral (PO) route for inhibition of the inflammation (paw swelling), cartilage destruction, and bone resorption that occurs in semi-established type II collagen arthritis in female Lewis rats. Rats (10 per group) were injected intradermally (ID) with porcine type II collagen to induce arthritis; one group of rats (4 per group) served as vehicle-treated naïve controls. […] Positive controls were treated PO, BID with the reference compound Tofacitinib citrate (10 mg/kg). The rats were euthanized for necropsy on study day 21 (animals #1-5 in each group, animals #1-2 in naïve group) or 22 (animals #6-10 in each group, animals #3-4 in naïve group). Efficacy evaluation was based on animal body weights (Table 9), daily ankle caliper measurements (FIG. 4), ankle diameter expressed as area under the curve (AUC) (Table 10), terminal hind paw weights (Table 11), histopathologic evaluation of hind paws (Ankle Inflammation score: Table 12, Ankle Pannus score: Table 13, Ankle Cartilage Damage score: Table 14, Ankle Bone Resorption score: Table 15, Ankle Periosteal Bone score: Table 16, Ankle Periosteal Bone Width: Table 17) and knees (Knee Inflammation score: Table 18, Knee Pannus score: Table 19, Knee Cartilage Damage score: Table 20, Knee Bone Resorption score: Table 21), and relative spleen to body weight ratio (Table 22). Terminal serum was analyzed by enzyme-linked immunosorbent assay (ELISA) for anti-type II collagen antibodies (IgG) (Table 23). […] Statistics were conducted using ordinary one-way ANOVA with Dunnett's multiple comparison correction in GraphPad Prism.

[3] = Assay 2. Stability in Simulated Intestinal Fluid (SIF); type: in vitro ADME; settings: SIF pH 6.7 with pancreatin, 1 μM, 37° C.
Summary of the method: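 Compounds at 1 µM (from 1 mM DMSO stock) were incubated at 37 °C with agitation in simulated intestinal fluid: FaSSIF in pH 6.7 phosphate buffer with pancreatin. Aliquots taken from T0 onward were quenched with acetonitrile and analyzed by LC/MS for degradation rate.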

[4] = Assay 3. In vitro Colonic Material Stability Assay; type: in vitro ADME; settings: colonic material slurry, anaerobic, 1 or 10 μM
[5] = system: neutrophil; assay: Neutrophil chemokine production assay; type: cell-based, human; settings: 12 h
Description: A volume 25 mL of human blood was layered over 15 mL of Histopaque®-1077 and centrifuged at 500 g, RT, for 30 min with no break applied to the centrifuge. The PBMC band and Histopaque®-1077 layer were removed leaving behind the bottom red layer which was mixed with 40 mL of 1× red blood cell (RBC) lysis buffer (Sigma-Aldrich) was and split into two 50 mL tubes. The volume for both fractions was brought to 50 mL with RBC lysis buffer, mixed by inversion, and then incubated at RT for 10 min. Solutions were centrifuged at 250 g, for 10 min at RT and the supernatant liquids removed. The reddish pellets were re-suspended in 1 mL of RBC lysis buffer and combined. The cell suspension was incubated for 5 min at RT in RBC lysis buffer. After incubation 45 mL of Hanks Balanced Salt Solution with no calcium, magnesium or phenol red (HBSS−) was added, the cell suspension was spun (250 g for 10 min at RT), and supernatant liquids were removed. The white pellet was re-suspended in 1 mL of HBSS−, and cell counts were determined. The neutrophil cell suspension was brought to a concentration of 1.11e6 cells/mL in RPMI complete (Sigma-Aldrich), and 180 μL of cell suspension was transferred to all wells within a sterile 96-well tissue culture treated plate resulting in 2.0e5 cells/well. […] After incubation, 10 μL of 2 μg/mL LPS solution in RPMI complete was added to each well except for control wells, which received an additional 10 μL of media. Cells were incubated for 12 h (37° C., 5% CO2), after which plates were centrifuged at 250 g, RT, for 5 min and supernatant liquids were obtained and stored at −80° C. until analyzed via Luminex® Multiplex Assay for various chemokines and cytokines. Three data points were acquired from two different blood donors and averaged.

[6] = system: Primary Human Peripheral Blood Mononuclear Cells (PBMCs); assay: Inflammatory signals in LPS-treated primary human PBMCs; type: cell-based; settings: 100 uM, 24 hours
Description: Human donor blood (8 mL) was collected in sodium citrate CPT tubes and centrifuged at 1,600×g for 20 minutes at room temperature. Buffy coat containing PBMCs was collected and transferred to a 50 mL conical tube containing 30 mL of RPMI-1640 medium at room temperature (supplemented with penicillin-streptomycin). PBMCs samples were centrifuged at 400×g for 10 minutes at 10° C. The pelleted PBMCs were washed twice in 10 ml of RPMI-1640 medium (supplemented with penicillin-streptomycin), then resuspended in RPMI-1640 medium (supplemented with penicillin-streptomycin, fetal bovine serum, and L-Glutamine). PBMCs were filtered through a 70 micron mesh to remove any cellular debris. […] PBMCs in a 96-well plate were rested for 30 minutes in a 37° C., 5% CO2 incubator, then subsequently treated with 10 μl of indicated compound. After 2 hours 10 μL of LPS (O111:B4) 1 mg/mL was added to test wells. After 24 hours of incubation at 37° C., 5% CO2, 100 μL of cell supernatant was collected and transferred to a 96-well plate (non-tissue treated, flat bottom). The plate was centrifuged at 350×g for 5 minutes at room temperature, and then the clear supernatant transferred to a new 96-well plate (non-tissue treated, flat bottom). The remaining cells were tested for viability using CellTiter-Glo® Luminescent Cell Viability Assay (Promega). The supernatant was analyzed for TNFα, IL-6 and […] Systems), using Luminex Immunoassay Technology (MAGPIX System). Cytokine levels of LPS treated DMSO control samples were set to 100%, and compound treated samples were expressed relative to this (Table 3).

## CCCC(=O)O [Butyric acid, reference compound]
[1]; 3 mM
  Cell viability % DMSO: − (<90%: −)
[2]; 420 mg/kg PO BID
  Mean Ankle Diameter AUC (mm*day): 92.46 mm*day
  Mean Ankle Periosteal Bone width (um): 573.30 um
  Mean Knee Inflammation score (0-5): 4.83
  Mean Terminal hind paw weights: 2.4759 g
  Mean body weight change, day −1 to 21 (%): −2.3%
  Relative Spleen to Body Weight (Mean): 0.2416
  Mean Ankle Bone Resorption score (0-5): 2.95
  Mean Ankle Cartilage Damage score (0-5): 3.80
  Mean Ankle Pannus score (0-5): 2.95
  Mean Ankle Periosteal Bone score (0-5): 3.08
  Mean Ankle inflammation score (0-5): 2.4759
  Mean Knee Bone Resorption score (0-5): 2.43
  Mean Knee Cartilage Damage score (0-5): 3.28
  Mean Knee Pannus score (0-5): 2.43
  Serum IgG: 5824.57 µg/mL

## CCCC(=O)Oc1cc(C(=O)O)cc(OC(=O)CCC)c1OC(=O)CCC [Compound 45, 3,4,5-tris(butyryloxy)benzoic acid]
[2]; 500 mg/kg PO BID
  Mean Ankle Diameter AUC (mm*day): 94.20 mm*day
  Mean Ankle Periosteal Bone width (um): 630.00 um
  Mean Knee Inflammation score (0-5): 5.25
  Mean Terminal hind paw weights: 2.3988 g
  Mean body weight change, day −1 to 21 (%): −6.3%
  Relative Spleen to Body Weight (Mean): 0.2534
  Mean Ankle Bone Resorption score (0-5): 3.48
  Mean Ankle Cartilage Damage score (0-5): 4.20
  Mean Ankle Pannus score (0-5): 3.48
  Mean Ankle Periosteal Bone score (0-5): 3.38
  Mean Ankle inflammation score (0-5): 2.3988
  Mean Knee Bone Resorption score (0-5): 2.40
  Mean Knee Cartilage Damage score (0-5): 3.63
  Mean Knee Pannus score (0-5): 2.48
  Serum IgG: 5431.64 µg/mL
[3]
  Assay 2 (SIF) (% @ Remaining 4 hours): A (<25% of the tested compound remaining)
[4]
  Assay 3 (% Remaining at 24 h): A (<25% of the tested compound remaining)

## CC[C@H]1[C@@H](O)[C@@H]2[C@H](CC[C@]3(C)[C@@H]([C@H](C)CCC(=O)O)CC[C@@H]23)[C@@]2(C)CC[C@@H](O)C[C@@H]12 [Obeticholic acid]
[1]; 100 uM
  Cell viability % DMSO: = (90%> <110%: =)

## CN(CCOc1ccc(CC2SC(=O)NC2=O)cc1)c1ccccn1 (stereo not drawn) [Rosiglitazone, rosiglitazone]
[1]; 10 uM
  Cell viability % DMSO: = (90%> <110%: =)
[1]; 100 uM
  Cell viability % DMSO: − (<90%: −)

## CCCC(=O)O [butyrate]
[5]; 500.0 μM
  % IL-8 (Vehicle + LPS = 100%): ++ (++ = <70%Vehicle)
  % MIP-1α (Vehicle + LPS = 100%): +++ (+++ = <50% Vehicle)
  % MIP-1β (DMSO + LPS = 100%): +++ (+++ = <50% Vehicle)
[5]; 1000.0 μM
  % IL-8 (Vehicle + LPS = 100%): ++ (++ = <70%Vehicle)
  % MIP-1α (Vehicle + LPS = 100%): +++ (+++ = <50% Vehicle)
  % MIP-1β (DMSO + LPS = 100%): +++ (+++ = <50% Vehicle)

## C[C@@H](O)CCO [(R)-1,3-Butanediol]
[1]; 100 uM
  Cell viability % DMSO: = (90%> <110%: =)
[1]; 0.5 mM
  Cell viability % DMSO: = (90%> <110%: =)

## CCC(=O)O [propionate]
[6]
  IL1β % DMSO control: + ((+) 50%> <90% DMSO)
[5]; 500.0 μM
  % IL-8 (Vehicle + LPS = 100%): − (− = >90% Vehicle)
  % MIP-1α (Vehicle + LPS = 100%): +++ (+++ = <50% Vehicle)
  % MIP-1β (DMSO + LPS = 100%): +++ (+++ = <50% Vehicle)
[5]; 1000.0 μM
  % IL-8 (Vehicle + LPS = 100%): ++ (++ = <70%Vehicle)
  % MIP-1α (Vehicle + LPS = 100%): +++ (+++ = <50% Vehicle)
  % MIP-1β (DMSO + LPS = 100%): +++ (+++ = <50% Vehicle)
[5]; 3000.0 μM
  % IL-8 (Vehicle + LPS = 100%): +++ (+++ = <50% Vehicle)
  % MIP-1α (Vehicle + LPS = 100%): +++ (+++ = <50% Vehicle)
  % MIP-1β (DMSO + LPS = 100%): +++ (+++ = <50% Vehicle)

## O=C[C@H](O)[C@@H](O)[C@@H](O)CO [L-arabinose]
[1]; 0.5 mM
  Cell viability % DMSO: = (90%> <110%: =)
[1]; 1 mM
  Cell viability % DMSO: = (90%> <110%: =)
[6]
  IL1β % DMSO control: = ((=) 90%> <110% DMSO)
  IL6 % DMSO control: + ((+) 50%> <90% DMSO)
  TNFα % of DMSO control: + ((+) 50%> <90% DMSO)
[5]; 500.0 μM
  % IL-8 (Vehicle + LPS = 100%): − (− = >90% Vehicle)
  % MIP-1α (Vehicle + LPS = 100%): − (− = >90% Vehicle)
  % MIP-1β (DMSO + LPS = 100%): − (− = >90% Vehicle)
[5]; 1000.0 μM
  % IL-8 (Vehicle + LPS = 100%): − (− = >90% Vehicle)
  % MIP-1α (Vehicle + LPS = 100%): − (− = >90% Vehicle)
  % MIP-1β (DMSO + LPS = 100%): − (− = >90% Vehicle)

## CC(=O)O [Acetic acid, acetic acid]
[1]; 1 mM
  Cell viability % DMSO: = (90%> <110%: =)
[1]; 3 mM
  Cell viability % DMSO: = (90%> <110%: =)

## O=c1c(O)c(-c2ccc(O)c(O)c2)oc2cc(O)cc(O)c12 [quercetin, reference compound]
[1]; 100 nM
  Cell viability % DMSO: = (90%> <110%: =)
[1]; 1 uM
  Cell viability % DMSO: = (90%> <110%: =)
[6]
  IL1β % DMSO control: + ((+) 50%> <90% DMSO)
[5]; 0.1 μM
  % IL-8 (Vehicle + LPS = 100%): − (− = >90% Vehicle)
  % MIP-1α (Vehicle + LPS = 100%): − (− = >90% Vehicle)
  % MIP-1β (DMSO + LPS = 100%): − (− = >90% Vehicle)
[5]; 1.0 μM
  % IL-8 (Vehicle + LPS = 100%): − (− = >90% Vehicle)
  % MIP-1α (Vehicle + LPS = 100%): − (− = >90% Vehicle)
  % MIP-1β (DMSO + LPS = 100%): − (− = >90% Vehicle)

## CC(O)CC(=O)[O-].[Na+] (stereo not drawn) [Sodium BHB]
[1]; 2 mM
  Cell viability % DMSO: = (90%> <110%: =)
  Treg induction % DMSO: + (110%> <130%: +)
[1]; 20 mM
  Cell viability % DMSO: − (<90%: −)
  Treg induction % DMSO: = (90%> <110%: =)

## CCC(=O)O [Propionic acid]
[1]; 3 mM
  Cell viability % DMSO: = (90%> <110%: =)
